Measured values published in patent publication US5348941A, “Stabilizers for fibroblast growth factors” (Merck & Co., Inc., priority 1992, dated 1994).

Key:
aFGF = molecular target: T1, aFGF (Homo sapiens, UniProt P05230); test: Thermal denaturation (Tm) of aFGF by circular dichroism; type: biochemical; conditions: for Tm of aFGF (maximum Tm induced by ligand), circular dichroism: PBS pH 7.2, excess ligand (1-3X by weight; 120 mM sodium sulfate, 10 mM tetrapolyphosphate); for Tm of aFGF, circular dichroism: 3X ligand by weight
T1 construct: The recombinant derived, 140 amino add form is the preferred form of aFGF; N-terminal methionine (MetHaFGF); made in house; host or cells: microbial cells (preferred embodiment)
T1 sequence (P05230 16-155 limits assumed): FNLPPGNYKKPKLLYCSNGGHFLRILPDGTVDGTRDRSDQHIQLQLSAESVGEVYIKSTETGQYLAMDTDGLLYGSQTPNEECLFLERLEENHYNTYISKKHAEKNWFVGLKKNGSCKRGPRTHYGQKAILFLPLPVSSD

acidic FGF (aFGF) = acidic FGF (aFGF) (Homo sapiens, UniProt P05230); test: biochemical; conditions: for stabilization of aFGF against heat-induced aggregation: 0.5X and 10X ligand, FIGS. 6-8; for Approx. Molar Ratio (ligand to aFGF at 50% inhibition of aggregation): Table 1
acidic FGF (aFGF), sequence (P05230 16-155 limits assumed): as above
From the text: Stabilization of aFGF can be determined by several independent methods including turbidity measurements, spectroscopic techniques, maintenance of protein mass, mitogenic activity and copper catalyzed oxidation. Since acidic fibroblast growth factor is unstable at physiological temperatures (undergoing large structural changes, including aggregation, which results in a loss of mitogenic and wound healing activity), human aFGF stability can be monitored by evaluating the turbidity of the pharmaceutical composition by following the kinetics of temperature induced aggregation of unfolded protein.
The kinetics of protein aggregation (stabilization) are monitored by the degree of light scattering at about OD350 nm using a Perkin Elmer Lambda 6 UV-visible spectrophotometer equipped with a six-cuvette holder. Temperature is controlled by circulating a water/ethylene glycol solution through the cell holder. About 0.9 ml of a PBS solution (6 mM sodium phosphate, 120 mM NaCl, pH 7.2) was placed into a cuvette and incubated at the appropriate temperature within the spectrophotometer. Once equilibrated, 100 μl of a 1 mg/ml aFGF solution containing the appropriate amount of ligand (stabilizer) is added to the cuvette and mixed manually by inversion. The change in optical density at 350 nm over time is continuously monitored. A dead time of 30s was present due to the mixing of the six samples in each experiment.
To examine the interactions between aFGF and heparin, a spectrophotometric turbidity assay was developed. This technique monitors the structural stability of aFGF by following the kinetics of temperature induced aggregation of unfolded protein by measurement of the degree of light scattering (turbidity) at 350 nm. The kinetics of protein aggregation were monitored by the degree of light scattering at 350 nm using a Perkin Elmer Lambda 6 UV-visible spectrophotometer equipped with a six-cuvette holder. Temperature was controlled by circulating a water/ethylene glycol solution through the cell holder. A PBS solution, 0.9 ml, (6 mM phosphate, 120 mM NaCl pH 7.2) was placed into a cuvette and incubated at the appropriate temperature within the spectrophotometer. Once equilibrated, 100 μl of a 1 mg/ml aFGF solution containing the appropriate amount of ligand was added to the cuvette and mixed manually by inversion. The change in optical density at 350 nm over time was continuously monitored. A dead time of 30s was present due to the mixing of the six samples in each experiment.
Samples contained 100 μg/ml aFGF in a PBS buffer at pH 7.2 with the indicated ratio of heparin to aFGF (wt:wt).
Samples contained 100 μg/ml protein in a PBS buffer, pH 7.2 with (a) no heparin, (b) 1.5 μg/ml, (c) 3 μg/ml, (d) 5 μg/ml, (e) 10 μg/ml and (f) 50 μg/ml heparin. Only representative data points are shown for clarity. […] Using the initial linear portion of the slope of turbidity vs. time plots as a measure of the rate of aggregation, the effect of polyanion concentration can be quantitatively characterized. The Y-axis represents the maximum rate of turbidity formation (ΔOD350 nm/min) normalized to sample (a) containing no heparin. The curve is drawn through data points for clarity only. The IC50 is the concentration of ligand at which the rate of aggregation is 50% of the control sample.

[1] = 40° C., 100 μg/ml aFGF, PBS pH 7.2

Compound	Tm of aFGF (maximum Tm induced by ligand), circular dichroism (aFGF)	Approx. Molar Ratio (ligand to aFGF at 50% inhibition of aggregation) (acidic FGF (aFGF); 40° C.)	IC50: concentration of ligand at which the rate of heat-induced aggregation of aFGF is 50% of the sample without ligand (acidic FGF (aFGF); [1])	heparin concentration down to which no detectable aggregation of aFGF was observed (acidic FGF (aFGF); 40° C., 100 μg/ml aFGF (1:10 weight ratio of heparin to aFGF))	number of ligand molecules per aFGF (molar ratio) required for stabilization (acidic FGF (aFGF); 40° C.)	IC50 (acidic FGF (aFGF); 40° C., 100 μg/ml aFGF, PBS pH 7.2, read-out: IC50: concentration of ligand at which the rate of heat-induced aggregation of aFGF is 50% of the sample without ligand (converted))	stabilization of aFGF against heat-induced aggregation (acidic FGF (aFGF); 40° C.)	aggregation of aFGF (acidic FGF (aFGF); 55° C., 25 minutes, 3-fold excess heparin by weight)	Tm of aFGF, circular dichroism (aFGF)
O=P(O)(O)O[C@H]1[C@H](OP(=O)(O)O)[C@@H](OP(=O)(O)O)[C@H](OP(=O)(O)O)[C@@H](OP(=O)(O)O)[C@H]1OP(=O)(O)O [Inositol hexaphosphate, inositol hexaphosphate]	70 °C	–	–	–	–	–	–	–	–
O=S(=O)(O)OC1C(OS(=O)(=O)O)C(OS(=O)(=O)O)C(OS(=O)(=O)O)C(OS(=O)(=O)O)C1OS(=O)(=O)O (stereo not shown) [Inositol hexasulfate, inositol hexasulfate]	66 °C	0.6	–	–	only one or a few ligands per aFGF molecule	4.54 µM	stabilize aFGF against heat-induced aggregation	–	–
O=P(O)(O)OP(=O)(O)OP(=O)(O)OP(=O)(O)O [Tetrapolyphosphate]	66 °C	1.2	3 mg/L	–	only one or a few ligands per aFGF molecule	–	–	–	–
low molecular weight heparin [Low MW heparin, reference compound]	66 °C	0.10	3 mg/L	–	–	–	dramatically stabilize aFGF from heat-induced aggregation	–	–
sulfated β-cyclodextrin	65 °C	–	–	–	–	–	–	–	65 °C

More lines, main results first:

Tm of aFGF (maximum Tm induced by ligand), circular dichroism (aFGF)	Approx. Molar Ratio (ligand to aFGF at 50% inhibition of aggregation) (acidic FGF (aFGF); 40° C.)	IC50: concentration of ligand at which the rate of heat-induced aggregation of aFGF is 50% of the sample without ligand (acidic FGF (aFGF); [1])	heparin concentration down to which no detectable aggregation of aFGF was observed (acidic FGF (aFGF); 40° C., 100 μg/ml aFGF (1:10 weight ratio of heparin to aFGF))	Compound	number of ligand molecules per aFGF (molar ratio) required for stabilization (acidic FGF (aFGF); 40° C.)	IC50 (acidic FGF (aFGF); 40° C., 100 μg/ml aFGF, PBS pH 7.2, read-out: IC50: concentration of ligand at which the rate of heat-induced aggregation of aFGF is 50% of the sample without ligand (converted))	stabilization of aFGF against heat-induced aggregation (acidic FGF (aFGF); 40° C.)	aggregation of aFGF (acidic FGF (aFGF); 55° C., 25 minutes, 3-fold excess heparin by weight)	Tm of aFGF, circular dichroism (aFGF)
62 °C	0.06	3 mg/L	–	dextran sulfate	substantially below one	–	dramatically stabilize aFGF from heat-induced aggregation	–	–
64 °C	0.03	2 mg/L	approximately 10 μg/ml	heparin [reference compound]	substantially below one	–	–	no aggregation observed after 25 minutes at 55 °C	64 °C
